{"source": "patent US8883763B2", "about": "(Universite Joseph Fourier, priority 2010, dated 2014)", "key": {"[1]": {"tested_on": "human tumours (HTB-177: pulmonary carcinoma) xenografted onto nude mice", "experiment": "HTB-177 tumour xenograft in nude mice, necrosis and histology", "assay_type": "in vivo", "protocol": "(§1) All the animal experiments were carried out according to the recommendations of the local ethics commmittee. Nude mice (NCr-nu/nu females (Harlan Laboratories), were housed in a room with filtered air at 22° C., alternating 12 hours of day and 12 hours of night.\nHTB177 cells (1×10^6) were implanted sub-cutaneously in the flanks of the mice. The tumour growth was monitored twice weekly by measuring the size of the tumours with a slide caliper, thus making it possible to estimate the volume of the tumour, calculated in mm^3 according to the following formula: length×width×height×π/6.\nTreatment commenced when the tumours reached a size of approximately 250 mm^3. The weight of the animal, the volume of the tumour and the extension of the necroses were measured twice weekly.\nThe animals were sacrificed when the tumour reached 2000 mm^3 or sooner if a clinical sign of suffering, defined by the ethics committee, was observed.\n(§2) The mice received compound 6 per os in doses and at intervals described in the captions to the figures. The control mice received the vehicle alone (identical volume of beta-cyclodextrin at 60 mg/ml))\nAfter euthanasia of the animals, the tumours were removed, cut sagittally along the median line, frozen rapidly in nitrogen liquid and stored at −80° C. […]"}, "[2]": {"tested_on": "primary human fibroblasts", "experiment": "Indirect immunofluorescence on primary human fibroblasts", "assay_type": "cell-based", "details": "5 and 10 μM for 24 hours", "protocol": "Primary human fibroblasts (PHFs) were prepared from newborn foreskins as described in (Nahm W K et al., J Dermatol Sci. 2002, 28(2): pp 152-8).\nThe cells were cultured on slides in 24-well plates and incubated for 24 hours with molecule 6 at different concentrations from 1 to 10 μM.\nCorresponding quantities of DMSO were added to the culture medium in the control wells.\nThe cells were fixed in a solution of PBS with 4% paraformaldehyde (PFA) and 0.1% glutaraldehyde (GA), for 15 minutes and centrifuged at 300 g for the last 10 minutes of the fixing. The slides were rinsed in PBS and the free aldehyde groups were reduced by two successive 5-minute incubations in PBS containing 1 mg/ml of NaBH4.\nAfter one washing with PBS then another with PBST (PBS with 0.5% triton-X-100), the cells are incubated for 30 minutes at ambient temperature with anti α-tubulin monoclonal antibody solution (DM1A clone, Sigma # T6199) diluted to 1:200 in PBST. […] After 3 10-minute washings in PBST, the slides are mounted on plates in Fluorsave™ mounting medium (Calbiochem #345789) and are observed and analyzed using an Axiovert 200M inverted fluorescence microscope (Zeiss®). […]"}, "[3]": {"experiment": "In vivo toxicity in nude mice (weight, maximum tolerated oral dose)", "details": "200 mg/kg per os twice weekly over 2 months, 63 days", "protocol": "FIG. 14 presents the change in the weight of nude mice over 63 days. The mice received an administration of compound 6 (200 mg/kg) per os twice weekly over 2 months.\nCompound 6 was dissolved at 8 mg/ml in a 60 mg/ml aqueous solution of beta-cyclodextrin (vehicle).\nFor the in vivo experiments, molecule 6 (8 mg/ml) was prepared in 60 mg/ml of β-cyclodextrin (Sigma #4805) dissolved in water and vortexed.\nas §1, §2"}, "HeLa cells": {"tested_on": "HeLa cells", "experiment": "Phase contrast video microscopy of HeLa cells (mitosis duration, blebbing)", "assay_type": "cell-based, human", "details": "0.5 μM", "protocol": "The cells were filmed over 48 hours (image acquisition every 5 minutes) with a Neofluar 40× objective (Zeiss).\nThe values of FIG. 10A are averages±SEM of two experiments in which 50 mitotic cells were monitored.\nFor z-series video microscopy, HeLa cells were cultured in glass-bottomed dishes (Iwaki, Milian # BY-3910035). The system comprises: an AXIOVERT 200M inverted microscope (Zeiss®), a thermostated incubation chamber which maintains a temperature of 37° C. and a constant CO2 level of 5%, a motorized platform and a CoolSNAP HQ camera (Roper Scientifics®) coupled with the Metamorph acquisition and analysis system (Universal Imaging™ Corporation). The studies were carried out with ×20 or ×40 objectives (Neofluar Zeiss).\nInitially, the acquisition fields were chosen and stored in the memory, then the acquisition parameters were defined, such as the duration of the experiment (48 hours), the interval between the image captures (5 minutes), or the number of sections at depth z (9 sections). At the end of 48 hours of recording, the acquisition batteries were reconstituted with the image at z having the same focus, using the Metamorph software."}, "bovine brain tubulin": {"tested_on": "bovine brain tubulin", "experiment": "In vitro tubulin polymerization test (turbidimetry at 350 nm)", "assay_type": "biochemical", "details": "molecules at 50 μM, calculated at t=3000 s, DMSO control = 100%", "outline": "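Bovine brain tubulin was assembled at 37 °C in BRB80 (80 mM K-PIPES pH 6.8, 1 mM MgCl2, 1 mM EGTA) with 1 mM GTP. The 50 μM tests used compounds at 50 μM, run in triplicate. Turbidity at 350 nm was read at t=3000 s and expressed relative to control taken as 100%.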"}}, "data": [{"smiles": "COc1ccc(-c2[nH]c(=O)c3cc(OC)ccc3c2[N+](=O)[O-])cc1", "note": "[Compound 6, 7-methoxy-3-(4-methoxyphenyl)-4-nitroisoquinoline-1(2H)-one]", "values": [{"measurement": "tumour necrosis (macroscopic)", "setting": "[1]; 40 mg/kg twice weekly per os, after one cycle of administration (day 7)", "result": "central necrosis"}, {"measurement": "necrosis on H&E-stained tumour sections", "setting": "[1]; 48 hours after administration of 40 mg/kg", "result": "extensive areas of necrosis"}, {"measurement": "phenotype on microtubules and actin cytoskeleton, primary human fibroblasts in interphase", "setting": "[2]", "result": "depolymerization of the microtubules and a reorganization of the actin cytoskeleton"}, {"measurement": "phenotype on microtubules and actin cytoskeleton, primary human fibroblasts in mitosis", "setting": "[2]", "result": "depolymerization of the spindle microtubules and the formation of ectopic furrows"}, {"measurement": "effect on the weight of nude mice", "setting": "[3]", "result": "no significant effect"}, {"measurement": "membrane phenotype of HeLa cells (interphase and mitosis), phase contrast", "setting": "HeLa cells; 3 hours", "result": "cortical blebbings"}, {"measurement": "mitotic arrest of HeLa cells, phase contrast over 24 hours", "setting": "HeLa cells; 24 hours", "result": "accumulation of rounded HeLa cells"}, {"measurement": "mitotic cells remaining rounded", "setting": "HeLa cells; HeLa cells in mitosis", "result": 20, "unit": "%"}, {"measurement": "mitotic cells showing intense blebbing", "setting": "HeLa cells; HeLa cells in mitosis", "result": 80, "unit": "%"}, {"measurement": "duration of the mitosis of HeLa cells", "setting": "HeLa cells; 1 hour under control conditions", "result": 22, "unit": "h"}, {"measurement": "Tubulin polymerization inhibition", "setting": "bovine brain tubulin", "result": "+ ((+) signifies that the molecule induces tubulin assembly inhibition in vitro comprised between 6 and 25% of the DMSO control.)"}]}]}
